Measurements: patent publication US11931335B2, “Enhancing autophagy or increasing longevity by administration of urolithins or precursors thereof” (Amazentis SA, priority 2012, dated 2024)

Columns and labels:
[1] = tested on: C. elegans wild-type Bristol N2; assay: Oxygen consumption (Seahorse XF24) in aged C. elegans; type: in vivo
Procedure: C. elegans strains were cultured at 20° C. on nematode growth media (NGM) agar plates seeded with E. coli strain OP50. Strain used was wild-type Bristol N2 provided by the Caenorhabditis Genetics Center (University of Minnesota). Urolithin A was dissolved in DMSO. Animals were exposed to compounds from eggs on plates seeded with live OP50 bacteria. Control plates were prepared with the corresponding concentration of DMSO (0.1%).
The effect of urolithin A on mitochondrial activity in aged C. elegans (10 days old) was assessed by treating C. elegans with urolithin A for 10 days of adulthood, at which time oxygen consumption was measured using the Seahorse XF24 equipment (Seahorse Bioscience Inc., North Billerica, MA). […] Worms were transferred into 24-well standard Seahorse plates (#100777-004) (50 worms per well) and oxygen consumption was measured. The basal oxygen consumption of the worms was first measured over 30 minutes at 5-minute intervals (0 min, 5 min, 15 min, 20 min, 25 min, and 30 min) with 5 replicates per interval. Respiration rates were normalized to the exact number of worms per well determined after the completion of the experiment using a stereomicroscope. […] Uncoupled oxygen consumption was measured at 5-minute intervals (35 min, 40 min, 45 min, 50 min, 55 min, and 60 min) to permit measuring the mitochondrial function over time.

liver of C57BL/6J mice = assay: Autophagy in liver of mice after oral urolithin A; type: in vivo, mouse; settings: oral 55 mg/kg/d in chow, 8 weeks
Procedure: To determine the ability of urolithin A to induce autophagy in vivo, healthy 10-week-old C57BL/6J mice were treated with either a standard rodent diet or a diet containing urolithin A mixed with food to reach a dosing of 55 mg/kg/day delivered to the mice. Following 8 weeks of treatment with urolithin A, mice were sacrificed and the liver of each animal was surgically isolated. The isolated livers were then placed in lysis buffer and prepared for western blot analysis.
Protein expression levels were examined for autophagy related proteins LC3-I and LC3-II (Cell Signaling antibody #4108), p62 (Cell Signalling antibody #5114), AMPKα (Cell Signaling antibody #2603), and p-AMPKα(Cell Signaling antibody #2531). The housekeeping protein, HSP90 (BD Transduction Laboratories antibody #610418) level was measured as a loading control. Each lane in the Western blot represents a protein sample for the liver of a single mouse, to permit observation of the effects aver a number of treated animals.

mouse C2C12 myoblasts = assay: Autophagy western blot in C2C12 myoblasts; type: cell-based; settings: 10 μM, 20 μM, and 50 μM, 16 hours
Procedure: C2C12 myoblast were cultured in Dulbecco's modified Eagle's medium (DMEM) including 4.5 g/L glucose, 20% fetal calf serum, and 50 μg/mL gentamicin. Urolithin A was dissolved in DMSO in a stock solution of […]. Cells were treated at final concentrations of urolithin A of 10 μM, 20 μM, and 50 μM for a period 16 hours. Control cells were treated with DMSO at an equivalent final concentration for the same period and served as the untreated control.
(§1) At the end of treatment, cells were lysed with RIPA buffer and applied to SDS-PAGE and analyzed by western blot. Protein expression levels were examined for autophagy-related proteins LC3-I and LC3-II (Cell Signaling antibody #4108), p62 (Cell Signaling antibody #5114), AMPKα (Cell Signaling antibody #2603), and p-AMPKα(Cell Signaling antibody #2531). The housekeeping protein, R-actin (Cell Signaling Antibody #4967) level was measured as a loading control.

[2] = tested on: human primary skeletal muscle cells; assay: Autophagy western blot in human primary myoblasts; type: cell-based; settings: 10 μM, 20 μM, and 50 μM, 16 hours
Procedure: Human primary skeletal myocytes were cultured in vitro and exposed to increasing concentrations of urolithin A, including 10 μM, 20 μM, and 50 μM for 16 hours. Human skeletal myoblasts were grown in DMEM plus 2% horse serum. Control cells were treated with DMSO at an equivalent final concentration for the same period and served as the untreated control.
as §1

ModeK cells = assay: Autophagy western blot in ModeK cells; type: cell-based, mouse; settings: 10 μM, 20 μM and 50 NM, eight hours
Procedure: The ability of urolithins to induce autophagy in mammalian cells was also examined. ModeK cells derived from intestine, were cultured in RPMI 1640 medium including 4.5 g/L glucose, 10% fetal calf serum, 1 mM Sodium Pyruvate, 10 mM HEPES, 0.1 mM NEAA, 2-Mercaptoethanol Penicillin 100 UI/mL and Streptomycin 100 μg/mL. Cells were cultured at 37° C. under a 5% CO2 atmosphere. Cells were treated with increasing concentrations of urolithin A (10 μM, 20 μM and […]). Treatment was performed for eight hours, after which cells were lysed and prepared for Western Blot analysis. Protein expression levels were examined for autophagy related proteins LC3-I and II (Cell Signaling antibody #4108), p62 (Cell Signalling antibody #5114), AMPKα (Cell Signaling antibody #2603), and p-AMPKα(Cell Signaling antibody #2531). The housekeeping protein, HSP90 (BD Transduction Laboratories antibody #610418) level was measured as a loading control.

aged C57BL/6J mice = assay: Grip test in aged mice; type: in vivo, mouse; settings: high fat diet, 50 mg/kg/day, 26 weeks, FIG. 22
Procedure: To examine the effects of urolithin A treatment on muscle function in aged mammals, 17-month-old C57BL/6J mice were treated with either a high fat rodent diet or a high fat rodent diet containing urolithin A mixed with food to reach a dosing of 50 mg/kg/day delivered to the mice.
Following 26 weeks of treatment with urolithin A, mice were assessed for their neuromuscular function by means of a grip test. Using the grip test, one can measure the forelimb grip strength of mice. Mice were placed on a grid to enable their fore paws grasp the support. To measure the grip strength, mice are pulled backward in the sensor axis until they are no longer able to hold the grid.

[3] = tested on: C. elegans wild-type Bristol N2; assay: Lifespan of wild-type C. elegans; type: in vivo; settings: for Mean Life Extension (%): Genotype: N2, fed live E. coli (OP50); for median lifespan increased by: FIG. 5; for Lifespan extension compared to control (%): 50 μM UA vs 1% DMSO
Procedure: C. elegans strains were cultured at 20° C. on nematode growth media (NGM) agar plates seeded with E. coli strain OP50. Strain used was wild-type Bristol N2 provided by the Caenorhabditis Genetics Center (University of Minnesota). All Compounds were dissolved in DMSO. Animals were exposed to compounds from eggs on plates seeded with live OP50 bacteria. Control plates were prepared with the corresponding concentrations of DMSO (0.1%). For lifespan tests, worms were observed using a Nikon SMZ1500 stereomicroscope (Nikon, Melville, NY, USA). […] After 3 days (corresponding to day 0), newly developed 60 to 100 L4 worms were used per condition, scored and transferred to fresh plates every 3 days starting from day 1 (young adult worms). All lifespan experiments were performed at 20° C.
Lifespan assays were performed with (A) wild-type (N2), (B) sir-2.1(ok434) mutant, (C) aak-2(ok524), (D) daf-16(mu86), (E) eat-2(ad465) and (F) daf-2(e1370) mutant strains of C. elegans maintained during their full life on plates supplemented with either 50 μM of urolithin A or with a control treatment and seeded with OP50 bacteria. Control plates without urolithin A contained an equivalent concentration of DMSO. Worm lifespan assays were performed at 20° C.

Question: What does the source list for `O=c1oc2cc(O)ccc2c2ccc(O)cc12` [Urolithin A, urolithin A]?
Answer: basal respiration, 10-day-old vs 1-day-old worms ([1]; 30 μM, FIG. 8D): normalizes the respiration rates; uncoupled (FCCP) respiration, area under the curve ([1]; 10-day-old worms, 30 μM urolithin A, 30-minute period, FIGS. 8A-8B): significantly increased uncoupled respiration; p62 protein levels (liver of C57BL/6J mice): decreased; phosphorylated AMPKα / ratio of p-AMPKα/AMPKα (liver of C57BL/6J mice; 55 mg/kg/day): increased levels; ratio of LC3-II to LC3-I (liver of C57BL/6J mice; FIG. 19, 55 mg/kg/day): increased; increase in autophagy over control untreated mice based on the ratio of LC3-II/LC3-I (liver of C57BL/6J mice; average): approximately 400%; levels of p62 (mouse C2C12 myoblasts): decrease; ratio of pAMPKα/AMPKα (mouse C2C12 myoblasts): increasing several fold; ratio of LC3-II to LC3-I (mouse C2C12 myoblasts; FIG. 16): dose-dependent increase; levels of p62 [2]: decrease; ratio of pAMPKα/AMPKα [2]: increasing several fold; ratio of LC3-II to LC3-I ([2]; FIG. 17): dose-dependent increase; levels of p62 (ModeK cells): decreased; ratio of LC3-II/LC3-I vs vehicle-treated cells (ModeK cells; FIG. 14): ≤ 10 fold; forelimb grip strength (aged C57BL/6J mice): greater grip strength; Mean Life Extension (%) ([3]; dose 10 μM): 27.7%; Mean Life Extension (%) ([3]; dose 50 μM): 75%; median lifespan increased by ([3]; concentration of 50 µM): 75%; effect on lifespan in C. elegans ([3]; concentration of 50 µM, exposed from eggs, FIG. 4): extended the lifespan; median lifespan increased by ([3]; concentration of 10 M): 27.7%; Median lifespan ([3]; wild-type (N2), 50 μM UA): 28 days; Lifespan extension compared to control (%) ([3]; wild-type (N2)): 75%; Lifespan extension compared to control (%) ([3]; wild-type (N2), listed as UA): +75%
